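Dose response: 5 concentrations. Exposure: 48 h. Format: 96-well plates. Endpoint: linear interpolation; highest concentration if not reached. TGI: concentration producing complete growth inhibition.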
Assays:
Assay in all cases: DTP human tumour cell line panel, 48 h
[1] = tested on: OVCAR-8 ovarian
[2] = tested on: MDA-MB-435
[3] = tested on: DU-145 prostate
[4] = tested on: SF-295 CNS
[5] = tested on: SF-539 CNS
[6] = tested on: BT-549 breast
[7] = tested on: SNB-19 CNS
[8] = tested on: UO-31 renal
[9] = tested on: RXF 393 renal
[10] = tested on: COLO 205 colon
[11] = tested on: MDA-N
[12] = tested on: HOP-92 NSCLC
[13] = tested on: EKVX NSCLC
[14] = tested on: MCF7 breast
[15] = tested on: IGROV1 ovarian
[16] = tested on: SK-MEL-2 melanoma
[17] = tested on: PC-3 prostate
[18] = tested on: LOX IMVI melanoma
[19] = tested on: NCI-H460 lung
[20] = tested on: A549 NSCLC
[21] = tested on: T-47D breast
[22] = tested on: HCT-116 colon
[23] = tested on: NCI-H522 lung
[24] = tested on: HOP-62 NSCLC
[25] = tested on: OVCAR-4 ovarian
[26] = tested on: SW-620 colon
[27] = tested on: K-562 leukemia
[28] = tested on: OVCAR-3 ovarian
[29] = tested on: SF-268 CNS
[30] = tested on: ACHN renal
[31] = tested on: NCI-H226 lung
[32] = tested on: CAKI-1 renal
[33] = tested on: OVCAR-5 ovarian
[34] = tested on: SN12C renal
[35] = tested on: CCRF-CEM leukemia
[36] = tested on: HL-60(TB) leukemia
[37] = tested on: UACC-257 melanoma
[38] = tested on: SK-MEL-28 melanoma
[39] = tested on: HCT-15 colon
[40] = tested on: U251 CNS
[41] = tested on: MDA-MB-231 breast
[42] = tested on: 786-0 renal
[43] = tested on: TK-10 renal
[44] = tested on: NCI/ADR-RES ovarian
[45] = tested on: HT29 colon
[46] = tested on: SK-MEL-5 melanoma
[47] = tested on: M14 melanoma
[48] = tested on: UACC-62 melanoma
[49] = tested on: MOLT-4 leukemia
[50] = tested on: KM12 colon
[51] = tested on: SK-OV-3 ovarian
[52] = tested on: RPMI-8226 leukemia
[53] = tested on: HCC-2998 colon
[54] = tested on: A498 renal
[55] = tested on: HS 578T breast
[56] = tested on: MALME-3M melanoma
[57] = tested on: NCI-H23 lung

Cc1nnc2n1N=C(c1cc(F)c(Cl)cc1Cl)/C(=C/c1ccc(Cl)cc1)S2
TGI [1]: > 100 µM | TGI [2]: 29.1 µM | TGI [3]: 48.6 µM | TGI [4]: 35.5 µM | TGI [5]: 92.3 µM | TGI [6]: 49 µM | TGI [7]: > 100 µM | TGI [8]: 27.4 µM | TGI [9]: 40.5 µM | TGI [10]: > 100 µM | TGI [11]: 35.4 µM | TGI [12]: 60.1 µM | TGI [13]: 28.6 µM | TGI [14]: 50.8 µM | TGI [15]: 53.9 µM | TGI [16]: 26.2 µM | TGI [17]: 80.6 µM | TGI [18]: 28.3 µM | TGI [19]: 38.9 µM | TGI [20]: 99.6 µM | TGI [21]: > 100 µM | TGI [22]: 21 µM | TGI [23]: > 100 µM | TGI [24]: 31.2 µM | TGI [25]: 33.3 µM | TGI [26]: > 100 µM | TGI [27]: > 100 µM | TGI [28]: 25.2 µM | TGI [29]: > 100 µM | TGI [30]: 41.7 µM | TGI [31]: 63.4 µM | TGI [32]: 41.4 µM | TGI [33]: 28 µM | TGI [34]: 36 µM | TGI [35]: > 100 µM | TGI [36]: > 100 µM | TGI [37]: 44.6 µM | TGI [38]: > 100 µM | TGI [39]: 35.2 µM | TGI [40]: 38.5 µM | TGI [41]: 47.6 µM | TGI [42]: 36.8 µM | TGI [43]: > 100 µM | TGI [44]: 34.2 µM | TGI [45]: 34.5 µM | TGI [46]: 41.3 µM | TGI [47]: 43 µM | TGI [48]: 52.8 µM | TGI [49]: > 100 µM | TGI [50]: 25.4 µM | TGI [51]: > 100 µM | TGI [52]: 44 µM | TGI [53]: 28.5 µM | TGI [54]: 41.3 µM | TGI [55]: > 100 µM | TGI [56]: 58.9 µM | TGI [57]: 48.8 µM

Reference: PubChem BioAssay (NCI)
